Earlier results, collected in patent US8759403B2, “Curcuminoids and its metabolites for the application in allergic ocular/nasal conditions” (Laila Pharmaceutical Pvt. Ltd., priority 2009, dated 2014).

Columns and labels:
murine model of allergy = details: mouse, in vivo
guinea pigs = details: 20 mg/kg body weight

Structure (SMILES): COc1cc(/C=C/C(=O)CC(=O)/C=C/c2ccc(O)c(OC)c2)ccc1O [curcumin]
- allergic response in treated animals (murine model of allergy): marked inhibition of allergic response
- airway hyper reactivity (guinea pigs; p<0.0043): significantly inhibits
- OVA-induced airway constriction (guinea pigs; p<0.0399): significantly inhibits
- histamine release from mast cells (mast cells): inhibitory effect
